Data set [1] relates to MIA PaCa-2. In words: Cytotoxicity against human MIAPaCa2 cells assessed as reduction in cell viability after 72 hrs by MTT assay. In kind it is functional, cell-based. The settings on record: MIA PaCa-2, 72 h. Background: Tetrazolium assays rely on reduction of a dye to a coloured formazan, in cell work by metabolically active cells.
The test system of data set [2] is NIH3T3. The data set is described as follows: Cytotoxicity against mouse NIH/3T3 cells assessed as reduction in cell viability after 72 hrs by MTT assay. In kind it is cell-based. Particulars: nih3t3, 72 h.
A short description of data set [3]: Inhibition of 20S proteasome in human MIAPaCa2 cells after 90 mins by fluorescence-based […]. It counts as cell-based. The settings on record: mia paca-2.

SMILES strings stand for the structures.

On to `CCCCCCC/C=C/C=C/C(=O)N[C@H](C(=O)N[C@H]1C[C@@H](O)CCNC(=O)/C=C/[C@H](C)NC1=O)[C@@H](C)O` [GLIDOBACTIN A], for which the IC50 was 7 nM in data set [1] and 69 nM in data set [3]. Further, in data set [2], the Activity entry is on record as “Non-toxic”.

With `CCCCCCC/C=C/C=C/C(=O)N[C@H](C(=O)N[C@H]1CCCCNC(=O)/C=C/[C@H](C)NC1=O)[C@@H](C)O` [LUMINMYCIN A], the IC50 in data set [1] is 18 nM; in data set [3] it was 88 nM. Besides, the Activity result in data set [2] was “Non-toxic”.

Turning to `CC(C)CCCCC/C=C/C=C/C(=O)N[C@H](C(=O)N[C@H]1CCCCNC(=O)/C=C/[C@H](C)NC1=O)[C@@H](C)O` [LUMINMYCIN D], the IC50 in data set [1] worked out at 110 nM; in data set [3], 380 nM. Further, the Activity entry in data set [2] is listed as “Non-toxic”.

One may read the IC50 as the concentration needed to halve the response being measured.

The values above are taken from ChEMBL document CHEMBL2163194, “Production of cytotoxic glidobactins/luminmycins by Photorhabdus asymbiotica in liquid media and live crickets” (J Nat Prod, 2012).
